Measured values published in patent publication US10800792B2, “Inhibitors of Bruton's tyrosine kinase and method of their use” (JANSSEN PHARMACEUTICA NV, priority 2015, dated 2020).

Molecular target: unphosphorylated-BTK kinase domain (UP-BTK), GST-tagged human BTK (389-659aa) (Homo sapiens (Human), UniProt Q06187)
Test: BTK kinase Lanthascreen binding assay
Details: Lanthascreen tracer competition, 60 minutes incubation; pIC50 = negative log of the IC50 in molar
Outline: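 Compound binding to the unphosphorylated kinase domain was monitored by displacement of a fluorescently labelled tracer in a Lanthascreen format. Potency is given as pIC50, the negative log of the molar IC50.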

Sequence of unphosphorylated-BTK kinase domain (UP-BTK), GST-tagged human BTK (389-659aa) (Q06187 389-659): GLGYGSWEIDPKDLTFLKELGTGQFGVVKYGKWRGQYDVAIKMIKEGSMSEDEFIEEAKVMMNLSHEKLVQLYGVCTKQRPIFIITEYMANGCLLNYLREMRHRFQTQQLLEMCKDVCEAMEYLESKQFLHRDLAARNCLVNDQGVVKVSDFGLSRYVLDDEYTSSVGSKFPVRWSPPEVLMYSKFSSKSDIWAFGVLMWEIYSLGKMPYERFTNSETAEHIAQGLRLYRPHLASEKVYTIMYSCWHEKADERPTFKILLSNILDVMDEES

Compound	BTK_I_binding pIC50
C=CC(=O)N1CC[C@@H](NC(=O)c2sc3nccc4c3c2NC(=O)N4c2ccc(Oc3cccnn3)cc2C)C1 [Example 790, (R)—N-(1-Acryloylpyrrolidin-3-yl)-5-(2-methyl-4-(pyridazin-3-yloxy)phenyl)-4-oxo-4,5-dihydro-3H-1-thia-3,5,8-triazaacenaphthylene-2-carboxamide]	6.7
Cc1cc(OC2CCCC2)ncc1N1C(=O)Nc2c(C(=O)N[C@@H]3CCNC3)sc3nccc1c23 (single isomer, unassigned) [Example 797, (R)-5-(*S)-(6-(Cyclopentyloxy)-4-methylpyridin-3-yl)-4-oxo-N-(pyrrolidin-3-yl)-4,5-dihydro-3H-1-thia-3,5,8-triazaacenaphthylene-2-carboxamide]	6.3
COCCC(=O)N1CCC[C@@H](NC(=O)c2sc3nccc4c3c2NC(=O)N4c2ccc(Oc3ccccc3)cc2)C1 [Example 593, (R)—N-(1-(3-Methoxypropanoyl)piperidin-3-yl)-4-oxo-5-(4-phenoxyphenyl)-4,5-dihydro-3H-1-thia-3,5,8-triazaacenaphthylene-2-carboxamide]	7.2
CCC(=O)N1CCC[C@H](NC(=O)c2sc3nccc4c3c2NC(=O)N4c2ccc(Oc3ccccc3)cc2C)C1 [Example 891, (S)-5-(2-Methyl-4-phenoxyphenyl)-4-oxo-N-(1-propionylpiperidin-3-yl)-4,5-dihydro-3H-1-thia-3,5,8-triazaacenaphthylene-2-carboxamide]	7.0
O=C(CCCC(=O)NCCCOCCOCCOCCCNC(=O)CCCC[C@H]1SC[C@H]2NC(=O)N[C@H]21)NC/C=C/C(=O)N1CCCC(NC(=O)c2sc3nccc4c3c2NC(=O)N4c2ccc(Oc3ccccc3)cn2)C1 (stereo partly drawn) [Example 780, N^1-(15-Oxo-19-((3aR,4R,6aS)-2-oxohexahydro-1H-thieno[3,4-d]imidazol-4-yl)-4,7,10-trioxa-14-azanonadecyl)-N^5-((E)-4-oxo-4-(3-(4-oxo-5-(5-phenoxypyridin-2-yl)-4,5-dihydro-3H-1-thia-3,5,8-triazaacenaphthylene-2-carboxamido)piperidin-1-yl)but-2-en-1-yl)glutaramide]	6.3
Cc1cc(Oc2ccccc2)ccc1N1C(=O)Nc2c(C(=O)NC3CCCN(C(=O)/C(C#N)=C/C(C)(C)C)C3)sc3nccc1c23 (stereo not shown) [Example 897, (E)-N-(1-(2-Cyano-4,4-dimethylpent-2-enoyl)piperidin-3-yl)-5-(2-methyl-4-phenoxyphenyl)-4-oxo-4,5-dihydro-3H-1-thia-3,5,8-triazaacenaphthylene-2-carboxamide]	6.8
O=C(N[C@@H]1CCCNC1)c1sc2nccc3c2c1NC(=O)N3c1ccc(Oc2ccccc2)cc1 [Example 860, (R)-4-oxo-5-(4-phenoxyphenyl)-N-(piperidin-3-yl)-4,5-dihydro-3H-1-thia-3,5,8-triazaacenaphthylene-2-carboxamide]	7.4
C=CC(=O)N1CCC[C@@H](NC(=O)c2sc3nccc4c3c2NC(=O)N4c2cccc(-c3ccncc3)c2)C1 [Example 631, (R)—N-(1-Acryloylpiperidin-3-yl)-4-oxo-5-(3-(pyridin-4-yl)phenyl)-4,5-dihydro-3H-1-thia-3,58-triazaacenaphthylene-2-carboxamide]	5.9

Same assay, conditions: pIC50 = negative log of the IC50 in molar; 60 minutes incubation, 50 nM Tracer 236

Compound	BTK_I_binding pIC50
Cc1cc(Oc2cccc3ccoc23)ccc1N1C(=O)Nc2c(C(=O)N[C@@H]3CCCN(C)C3)sc3nccc1c23 [Example 70, (R)-5-(4-(Benzofuran-7-yloxy)-2-methylphenyl)-N-(1-methylpiperidin-3-yl)-4-oxo-4,5-dihydro-3H-1-thia-3,5,8-triazaacenaphthylene-2-carboxamide]	7.1
Cc1cc(Oc2ccccc2O)ccc1N1C(=O)Nc2c(C(=O)N[C@@H]3CCCN(C)C3)sc3nccc1c23 [Example 220, (R)-5-(4-(2-Hydroxyphenoxy)-2-methylphenyl)-N-(1-methylpiperidin-3-yl)-4-oxo-4,5-dihydro-3H-1-thia-3,5,8-triazaacenaphthylene-2-carboxamide]	6.5
C=CC(=O)N1C[C@H](NC(=O)c2sc3nccc4c3c2NC(=O)N4c2ccc(Oc3ccccc3)cc2C)[C@@H](OC)C1 [Example 54, N-((3S,4S)-1-Acryloyl-4-methoxypyrrolidin-3-yl)-5-(2-methyl-4-phenoxyphenyl)-4-oxo-4,5-dihydro-3H-1-thia-3,5,8-triazaacenaphthylene-2-carboxamide]	7.3
COC[C@H](N)C(=O)N1CCC[C@@H](NC(=O)c2sc3nccc4c3c2NC(=O)N4c2ccc(Oc3ccccc3)cc2C)C1 [Example 120, N—((R)-1-((S)-2-Amino-3-methoxypropanoyl)piperidin-3-yl)-5-(2-methyl-4-phenoxyphenyl)-4-oxo-4,5-dihydro-3H-1-thia-3,5,8-triazaacenaphthylene-2-carboxamide]	7.1
CC#CC(=O)N1CCC[C@@H](NC(=O)c2sc3nccc4c3c2NC(=O)N4c2ccc(Oc3ccccc3)cc2C)C1 (single isomer, unassigned) [Example 55, (R)—N-(1-(But-2-ynoyl)piperidin-3-yl)-5-(*S)-(2-methyl-4-phenoxyphenyl)-4-oxo-4,5-dihydro-3H-1-thia-3,5,8-triazaacenaphthylene-2-carboxamide]	7.4

Same assay, conditions: unphosphorylated-BTK kinase domain, 50 nM Tracer 236, 60 minutes; pIC50 = negative log of the IC50 in molar

Compound	BTK_I_binding pIC50
Cc1cc(Oc2ccccc2)ccc1N1C(=O)Nc2c(C(=O)N[C@@H]3CCN(C(=O)/C=C/CN(C)C)C3)sc3nccc1c23 (single isomer, unassigned) [Example 502, (R,E)-N-(1-(4-(Dimethylamino)but-2-enoyl)pyrrolidin-3-yl)-5-(*S)-(2-methyl-4-phenoxyphenyl)-4-oxo-4,5-dihydro-3H-1-thia-3,5,8-triazaacenaphthylene-2-carboxamide]	7.9
Cc1cc(Oc2ccccc2)ccc1N1C(=O)Nc2c(C(=O)N[C@@H]3CCCN(C(=O)C(=CC4CC4)C(F)(F)F)C3)sc3nccc1c23 (mixture of isomers) [Example 313, (R,EZ)—N-(1-(3-Cyclopropyl-2-(trifluoromethyl)acryloyl)piperidin-3-yl)-5-(2-methyl-4-phenoxyphenyl)-4-oxo-4,5-dihydro-3H-1-thia-3,5,8-triazaacenaphthylene-2-carboxamide]	5.9
C=CC(=O)N1CC[C@@H](NC(=O)c2sc3nccc4c3c2NC(=O)N4c2ccc(Oc3ccccc3)cc2)C1 [Example 443, (R)—N-(1-Acryloylpyrrolidin-3-yl)-4-oxo-5-(4-phenoxyphenyl)-4,5-dihydro-3H-1-thia-3,5,8-triazaacenaphthylene-2-carboxamide]	7.7
Cc1cc(OC2CC2)ccc1N1C(=O)Nc2c(C(=O)N[C@@H]3CCCN(C)C3)sc3nccc1c23 [Example 322, (R)-5-(4-Cyclopropoxy-2-methylphenyl)-N-(1-methylpiperidin-3-yl)-4-oxo-4,5-dihydro-3H-1-thia-3,5,8-triazaacenaphthylene-2-carboxamide]	5.7
CN1CCC[C@@H](NC(=O)c2sc3nccc4c3c2NC(=O)N4c2ccc(Oc3ccccc3)cc2C(F)(F)F)C1 [Example 349, (R)—N-(1-Methylpiperidin-3-yl)-4-oxo-5-(4-phenoxy-2-(trifluoromethyl)phenyl)-4,5-dihydro-3H-1-thia-3,5,8-triazaacenaphthylene-2-carboxamide]	<5
O=C(N[C@@H]1CCNC1)c1sc2nccc3c2c1NC(=O)N3c1ccc(Oc2ccccc2)c(Cl)c1 [Example 577, (R)-5-(3-Chloro-4-phenoxyphenyl)-4-oxo-N-(pyrrolidin-3-yl)-4,5-dihydro-3H-1-thia-3,5,8-triazaacenaphthylene-2-carboxamide]	7.2
C=CC(=O)N1CCC[C@@H](NC(=O)c2sc3nccc4c3c2NC(=O)N4c2cccc(C3CC3)c2)C1 [Example 569, (R)—N-(1-Acryloylpiperidin-3-yl)-5-(3-cyclopropylphenyl)-4-oxo-4,5-dihydro-3H-1-thia-3,5,8-triazaacenaphthylene-2-carboxamide]	7.0
C=CC(=O)N1CCC[C@@H](NC(=O)c2sc3nccc4c3c2NC(=O)N4c2cccc(-c3ccc(C)cc3)c2)C1 [Example 521, (R)—N-(1-Acryloylpiperidin-3-yl)-5-(4′-methyl-[1,1′-biphenyl]-3-yl)-4-oxo-4,5-dihydro-3H-1-thia-3,5,8-triazaacenaphthylene-2-carboxamide]	7.5

Same assay, conditions: unphosphorylated-BTK kinase domain, 50 nM Tracer 236, 60 minutes; pIC50 = negative log of the IC50 in molar; read-out: BTK_I_binding pIC50 (converted)

Compound	IC50
C=CC(=O)N1CC[C@@H](NC(=O)c2sc3nccc4c3c2NC(=O)N4c2ccc(Oc3ccccc3)cc2)[C@@H](O)C1 [Example 574]	158 nM

Same assay, conditions: unphosphorylated-BTK kinase domain, 60 minutes incubation, 50 nM Tracer 236; pIC50 = negative log of the IC50 in molar

Compound	BTK_I_binding pIC50
Cc1cc(Oc2ccccc2)ccc1N1C(=O)Nc2c(C(=O)N[C@H]3CCCN(C)C3)sc3nccc1c23 [Example 930, (S)-5-(2-methyl-4-phenoxyphenyl)-N-(1-methylpiperidin-3-yl)-4-oxo-4,5-dihydro-3H-1-thia-3,5,8-triazaacenaphthylene-2-carboxamide]	6.0
CC(C)(C)c1ccc(N2C(=O)Nc3c(C(=O)N[C@@H]4CCCNC4)sc4nccc2c34)cc1 [Example 954, (R)-5-(4-(tert-Butyl)phenyl)-4-oxo-N-(piperidin-3-yl)-4,5-dihydro-3H-1-thia-3,5,8-triazaacenaphthylene-2-carboxamide]	5.0
O=C(N[C@@H]1CCCNC1)c1sc2nccc3c2c1NC(=O)N3c1ccc(Oc2ccccc2)cn1 [Example 915, (R)-4-Oxo-5-(5-phenoxypyridin-2-yl)-N-(piperidin-3-yl)-4,5-dihydro-3H-1-thia-3,5,8-triazaacenaphthylene-2-carboxamide]	6.5
